The values that follow come from patent US6413913B1, “Thiono-thiochroman and -dihydrobenzothiophene compounds as herbicidal agents” (BASF Corporation, priority 1999, dated 2002).

SMILES strings stand for the structures.

In data set [1] the test system is ABUTH (Velvetleaf). Kind of data set: Postemergence herbicidal evaluation. The format is in vivo, Abutilon theophrasti, Medic. The conditions noted are these: rated about 2-3 weeks after treatment, scale 0-9, averaged. As to the method: (§1) Seedling plants are grown in jiffy flats for about two weeks. The test compounds are dispersed in 80/20 (v/v) acetone/water mixtures containing 1.0% SUN-IT® II, a methylated seed oil, in sufficient quantities to provide the equivalent of about 0.006 kg/ha to 0.800 kg/ha of active compound when applied to the plants through a spray nozzle operating at 40 psi for a predetermined time. After spraying, the plants are placed on greenhouse benches and are cared for in accordance with conventional greenhouse procedures. Approximately two—three weeks after treatment, the seedling plants are examined and rated according to the rating system set forth below. Where more than one test is involved for a given compound, the data are averaged.

Data set [2] deals with AMBEL (Ragweed, Common). Kind of data set: Postemergence herbicidal evaluation. The format is in vivo, Ambrosia artemisifolia, L. The conditions noted are these: rated about 2-3 weeks after treatment, scale 0-9, averaged. As to the method: as §1
Data set [3] deals with AMBEL (Ragweed, Common). Description: Preemergence herbicidal evaluation. The format is in vivo, Ambrosia artemisifolia, L. The conditions noted are these: rated about 2-4 weeks after treatment, scale 0-9. The source says: (§2) In these tests, seeds of a variety of monocotyledonous and dicotyledonous plants are separately mixed with potting soil and planted on top of approximately one inch of soil in separate pint cups. After planting, the cups are sprayed with the selected aqueous acetone solution containing test compound in sufficient quantity to provide the equivalent of about 0.0125 to 0.800 kg per hectare of test compound per cup. The treated cups are then placed on greenhouse benches, watered and cared for in accordance with conventional greenhouse procedures. Approximately two—four weeks after treatment, the tests are terminated and each cup is examined and rated according to the rating system provided in Example 6.

Data set [4] concerns PANDI (Panicum, Fall). Kind of data set: Preemergence herbicidal evaluation. The format is in vivo, Panicum dichotomiflorum, Michx. The settings on record: rated about 2-4 weeks after treatment, scale 0-9.
Description: as §2

For data set [5], the system named is SETVI (Foxtail, Green). Kind of data set: Preemergence herbicidal evaluation. The settings on record: rated about 2-4 weeks after treatment, scale 0-9. The format is in vivo, Setaria viridis, (L.) Beau.
Description: as §2

Data set [6] relates to PANDI (Panicum, Fall). Description: Postemergence herbicidal evaluation. It counts as in vivo, Panicum dichotomiflorum, Michx. The settings on record: rated about 2-3 weeks after treatment, scale 0-9, averaged. As to the method: as §1
For data set [7], the system named is IPOHE (Morningglory, Ivyleaf). Kind of data set: Preemergence herbicidal evaluation. It counts as in vivo, Ipomoea hederacea, (L) Jacq. The conditions noted are these: rated about 2-4 weeks after treatment, scale 0-9.
Description: as §2

Data set [8] relates to ECHCG (Barnyardgrass). Kind of data set: Preemergence herbicidal evaluation. The format is in vivo, Echinochloa crus-galli, (L.) Beau. The conditions noted are these: rated about 2-4 weeks after treatment, scale 0-9.
Description: as §2

The test system of data set [9] is ZEAMX (Corn, Field). Description: Preemergence herbicidal evaluation (crop). It counts as in vivo, Zea mays, L.
Description: as §2

Data set [10] relates to ABUTH (Velvetleaf). Kind of data set: Preemergence herbicidal evaluation. It counts as in vivo, Abutilon theophrasti, Medic. The settings on record: rated about 2-4 weeks after treatment, scale 0-9.
Description: as §2

For data set [11], the system named is ECHCG (Barnyardgrass). Description: Postemergence herbicidal evaluation. The format is in vivo, Echinochloa crus-galli, (L.) Beau. The conditions noted are these: rated about 2-3 weeks after treatment, scale 0-9, averaged. Here is the method: as §1
The subject of data set [12] is IPOHE (Morningglory, Ivyleaf). Kind of data set: Postemergence herbicidal evaluation. The format is in vivo, Ipomoea hederacea, (L) Jacq. The conditions noted are these: rated about 2-3 weeks after treatment, scale 0-9, averaged. As to the method:
as §1

Data set [13] deals with SETVI (Foxtail, Green). Kind of data set: Postemergence herbicidal evaluation. The settings on record: rated about 2-3 weeks after treatment, scale 0-9, averaged. The format is in vivo, Setaria viridis, (L.) Beau. Here is the method:
as §1

Data set [14] concerns ZEAMX (Corn, Field). Kind of data set: Postemergence herbicidal evaluation (crop). The conditions noted are these: rated about 2-3 weeks after treatment, scale 0-9, averaged. The format is in vivo, Zea mays, L. As to the method:
as §1

Where [15] appears, read: preemergence, 0.050 kg/ha, rated about 2-4 weeks after treatment, scale 0-9.
[16] abbreviates: preemergence, 0.100 kg/ha, rated about 2-4 weeks after treatment, scale 0-9.

`CCn1ncc(C(=S)c2cc(C)c3c(c2C)C(C)(C)CCS3(=O)=O)c1O` [Example 2]: the “Herbicide rating ABUTH” value is 9.0 in data set [1] (0.050 kg/ha), 9.0 in [1] (0.100 kg/ha), 3.0 in [10] (0.050 kg/ha) and 9.0 in [10] (0.100 kg/ha). Besides, the “Herbicide rating AMBEL” value in data set [2] (0.050 kg/ha) is listed as 6.0; in [2] (0.100 kg/ha) it was 9.0; in [3] (0.050 kg/ha), 2.0; in data set [3] (0.100 kg/ha), 3.0. Moreover, the “Herbicide rating PANDI” value in [4] (0.050 kg/ha) was 5.0; in data set [4] (0.100 kg/ha) it was 7.0; in [6] (0.050 kg/ha) it was 5.0; in data set [6] (0.100 kg/ha), 4.0. Moreover, the “Herbicide rating SETVI” value was found to be 4.0 in data set [5] (0.050 kg/ha), 5.0 in data set [5] (0.100 kg/ha), 9.0 in [13] (0.050 kg/ha) and 9.0 in data set [13] (0.100 kg/ha). In addition, the “Herbicide rating IPOHE” value in data set [7] (0.050 kg/ha) is on record as 0.0; in data set [7] (0.100 kg/ha), 0.0; in [12] (0.050 kg/ha), 2.0; in data set [12] (0.100 kg/ha), 4.0. Further, the “Herbicide rating ECHCG” value in data set [8] (0.050 kg/ha) is on record as 0.0; in [8] (0.100 kg/ha), 3.0; in [11] (0.050 kg/ha), 5.0; in data set [11] (0.100 kg/ha), 9.0. Moreover, in data set [9] (in vivo), the “Herbicide rating ZEAMX (crop injury, corn)” value (“Herbicide rating ZEAMX” below) turned out to be 0.0.

For the molecule `Cc1c(C(=S)c2cnn(C)c2O)ccc2c1C(C)(C)CS2(=O)=O` [Example 3], the “Herbicide rating ABUTH” value in [1] (0.050 kg/ha) is reported as 9.0; in data set [1] (0.100 kg/ha) it was 8.0; in data set [10] (0.050 kg/ha), 8.0; in data set [10] (0.100 kg/ha) it was 9.0. Also, the “Herbicide rating AMBEL” value came to 9.0 in data set [2] (0.050 kg/ha), 8.0 in [2] (0.100 kg/ha), 5.5 in data set [3] (0.050 kg/ha) and 7.0 in data set [3] (0.100 kg/ha). Also, the “Herbicide rating PANDI” value was 6.5 in data set [4] (0.050 kg/ha), 8.0 in [4] (0.100 kg/ha), 7.0 in [6] (0.050 kg/ha) and 8.0 in [6] (0.100 kg/ha). Besides, the “Herbicide rating SETVI” value in [5] (0.050 kg/ha) was 5.0; in data set [5] (0.100 kg/ha), 7.0; in data set [13] (0.050 kg/ha), 8.0; in data set [13] (0.100 kg/ha), 8.0. For the same molecule, the “Herbicide rating IPOHE” value in [7] (0.050 kg/ha) and in data set [7] (0.100 kg/ha) was 2.0 each time. In addition, the “Herbicide rating ECHCG” value in [8] (0.050 kg/ha) is 7.0; in data set [8] (0.100 kg/ha), 8.5; in [11] (0.050 kg/ha), 7.0; in [11] (0.100 kg/ha), 9.0. For the same molecule, in [9] (in vivo), the “Herbicide rating ZEAMX” value is 0.0.

`CCn1ncc(C(=S)c2ccc3c(c2C)C(C)(C)CS3(=O)=O)c1O` [Example 4]: the “Herbicide rating ABUTH” value in data set [1] (0.050 kg/ha) came to 4.0; in data set [1] (0.100 kg/ha), 7.0; in data set [10] (0.050 kg/ha), 6.0; in [10] (0.100 kg/ha) it was 9.0. Further, the “Herbicide rating AMBEL” value in [2] (0.050 kg/ha) is reported as 8.0; in [2] (0.100 kg/ha) it was 8.0; in data set [3] (0.050 kg/ha), 2.0; in [3] (0.100 kg/ha), 9.0. Besides, the “Herbicide rating PANDI” value in data set [4] (0.050 kg/ha) is 2.0; in data set [4] (0.100 kg/ha), 7.0; in data set [6] (0.050 kg/ha) it was 3.0; in [6] (0.100 kg/ha), 9.0. In addition, the “Herbicide rating SETVI” value in [5] (0.050 kg/ha) is reported as 3.0; in data set [5] (0.100 kg/ha), 3.0; in [13] (0.050 kg/ha), 4.0; in data set [13] (0.100 kg/ha), 7.0. In addition, the “Herbicide rating IPOHE” value in data set [7] (0.050 kg/ha) was 1.0; in data set [7] (0.100 kg/ha), 1.0; in data set [12] (0.050 kg/ha), 4.0; in data set [12] (0.100 kg/ha) it was 4.0. Moreover, the “Herbicide rating ECHCG” value in data set [8] (0.050 kg/ha) is 2.0; in data set [8] (0.100 kg/ha), 9.0; in data set [11] (0.050 kg/ha) it was 8.0; in data set [11] (0.100 kg/ha), 8.0. Besides, the “Herbicide rating ZEAMX” value in [9] (in vivo) came out at 0.0.

As to `CCn1ncc(C(=S)c2ccc3c(c2C)/C(=N/OC)CCS3(=O)=O)c1O` [Example 1, 6-[(1-Ethyl-5-hydroxypyrazol-4-yl)thicarbonyl]-5-methylthiochroman-4-one (E) -O-Methyloxime, 1,1-Dioxide], the “Herbicide rating ZEAMX” value came out at 1.2 in data set [14] (0.050 kg/ha), 3.0 in data set [14] (0.100 kg/ha), 0.0 in data set [9] (setting [15]) and 0.8 in data set [9] (setting [16]). Also, the “Herbicide rating ABUTH” value is 7.6 in data set [1] (0.050 kg/ha), 8.0 in data set [1] (0.100 kg/ha), 7.3 in [10] (0.050 kg/ha) and 9.0 in [10] (0.100 kg/ha). For the same molecule, the “Herbicide rating AMBEL” value in [2] (0.050 kg/ha) stood at 8.2; in [2] (0.100 kg/ha) it was 8.4; in data set [3] (0.050 kg/ha) it was 8.5; in [3] (0.100 kg/ha) it was 8.8. For the same molecule, the “Herbicide rating PANDI” value turned out to be 8.0 in [4] (0.050 kg/ha), 8.5 in [4] (0.100 kg/ha), 6.3 in data set [6] (0.050 kg/ha) and 6.5 in data set [6] (0.100 kg/ha). Further, the “Herbicide rating SETVI” value in [5] (0.050 kg/ha) stood at 6.6; in data set [5] (0.100 kg/ha), 8.4; in data set [13] (0.050 kg/ha) it was 8.5; in data set [13] (0.100 kg/ha) it was 9.0. Further, the “Herbicide rating IPOHE” value came out at 2.5 in [7] (0.050 kg/ha), 6.0 in [7] (0.100 kg/ha), 2.0 in data set [12] (0.050 kg/ha) and 3.0 in data set [12] (0.100 kg/ha). Also, the “Herbicide rating ECHCG” value in data set [8] (0.050 kg/ha) came out at 5.8; in data set [8] (0.100 kg/ha), 8.3; in data set [11] (0.050 kg/ha), 8.0; in [11] (0.100 kg/ha), 7.8.

As to `CCCS(=O)(=O)Oc1c(C(=S)c2ccc3c(c2C)/C(=N/OC)CCS3(=O)=O)cnn1CC` [Example 5], the “Herbicide rating ZEAMX” value in data set [14] (0.050 kg/ha) was determined as 0.0; in [14] (0.100 kg/ha), 3.0; in data set [9] (setting [15]), 0.0; in data set [9] (setting [16]) it was 0.0. The “Herbicide rating AMBEL” value in [3] (0.050 kg/ha) is recorded as 7.0; in [3] (0.100 kg/ha), 9.0. In addition, the “Herbicide rating PANDI” value in data set [4] (0.050 kg/ha) and in [4] (0.100 kg/ha) was 7.0 in each case. Moreover, the “Herbicide rating SETVI” value in data set [5] (0.050 kg/ha) and in [5] (0.100 kg/ha) was 6.0 throughout. Further, the “Herbicide rating ECHCG” value in [8] (0.050 kg/ha) and in [8] (0.100 kg/ha) was 6.0 in each case. Besides, the “Herbicide rating ABUTH” value in data set [10] (0.050 kg/ha) and in [10] (0.100 kg/ha) was 9.0 each time.
